Data on 14 substances can be found in US12018097.

Read-outs that look alike come from different tables or passages of the source.

The conditions of the data set: the molecule shown is the open-chain precursor, thioether bond, resin, 4 steps.

For “catch-resin-ArSO2O-CH2CO-dTrp-Asp-MeSer-Gly-Asp-Pro-MeAla-Asp-Val-MeSer-Gly-Arg-MePhe-MeGly-Tyr-MePhe-Pro-Cys-Gly-NH2?”, the ring closure, conversion (57-membered ring) came out at 50%. For the setting “48-membered ring”, “catch-resin-ArSO2O-CH2CO-dTrp-Asp-Pro-MeAla-Asp-Val-MeSer-Gly-Arg-MePhe-MeGly-Tyr-MePhe-Pro-Cys-Gly-NH2?” yielded a ring closure, conversion of 74%. Regarding “catch-resin-ArSO2O-CH2CO-dTrp-Cys-Asp-Val-MeSer-Gly-Arg-MePhe-MeGly-Tyr-MePhe-Pro-Cys-Gly-NH2?”, the ring closure, conversion (42-membered ring) is 28%. “catch-resin-ArSO2O-CH2CO-dTrp-Gly-Asp-Pro-MeAla-Asp-Val-MeSer-Gly-Arg-MePhe-MeGly-Tyr-MePhe-Pro-Cys-Gly-NH2?”: under “51-membered ring”, the ring closure, conversion amounted to 51%. “catch-resin-ArSO2O-CH2CO-dTrp-MeAla-Asp-Val-Cys-Gly-NH2?” yielded a ring closure, conversion (18-membered ring) of 83%. As to “catch-resin-ArSO2O-CH2CO-dTrp-MeAla-Asp-Val-MeSer-Cys-Gly-NH2?”, the ring closure, conversion (21-membered ring) stood at 66%.

Turning to “catch-resin-ArSO2O-CH2CO-dTrp-MeAla-Asp-Val-MeSer-Gly-Arg-Cys-Gly-NH2?”, the ring closure, conversion (27-membered ring) worked out at 98%. As to “catch-resin-ArSO2O-CH2CO-dTrp-MeAla-Asp-Val-MeSer-Gly-Arg-MePhe-MeGly-Cys-Gly-NH2?”, the ring closure, conversion (33-membered ring) was found to be 64%. Substance “catch-resin-ArSO2O-CH2CO-dTrp-MeAla-Asp-Val-MeSer-Gly-Arg-MePhe-MeGly-Tyr-Cys-Gly-NH2?” gave a ring closure, conversion (36-membered ring) of 72%. “catch-resin-ArSO2O-CH2CO-dTrp-MeAla-Asp-Val-MeSer-Gly-Arg-MePhe-MeGly-Tyr-MePhe-Pro-Cys-Gly-NH2?” yielded a ring closure, conversion (42-membered ring) of 50%.

Take “catch-resin-ArSO2O-CH2CO-dTrp-MeAla-Tyr-Asp-MeSer-Gly-Asp-Pro-MeAla-Asp-Val-MeSer-Gly-Arg-MePhe-MeGly-Tyr-MePhe-Pro-Cys-Gly-NH2?”: where the note is “63-membered ring”, the ring closure, conversion was found to be 44%.

“catch-resin-ArSO2O-CH2CO-dTrp-MeSer-Gly-Asp-Pro-MeAla-Asp-Val-MeSer-Gly-Arg-MePhe-MeGly-Tyr-MePhe-Pro-Cys-Gly-NH2?” displayed a ring closure, conversion (54-membered ring) of 29%. Under “45-membered ring”, “catch-resin-ArSO2O-CH2CO-dTrp-Pro-MeAla-Asp-Val-MeSer-Gly-Arg-MePhe-MeGly-Tyr-MePhe-Pro-Cys-Gly-NH2?” showed a ring closure, conversion of 33%. “catch-resin-ArSO2O-CH2CO-dTrp-Tyr-Asp-MeSer-Gly-Asp-Pro-MeAla-Asp-Val-MeSer-Gly-Arg-MePhe-MeGly-Tyr-MePhe-Pro-Cys-Gly-NH2?”: the ring closure, conversion (60-membered ring) was 57%.
